Activity and Drug uptake data for one compound are collected here from ChEMBL document CHEMBL5338726, “Characterization of Chlorogenic Acid as a Two-Photon Fluorogenic Probe that Regulates Glycolysis in Tumor Cells under Hypoxia” (J Med Chem, 2023).

Calls of active or inactive are those of the source. No cut-off for these calls is given here.

The test system of data set [1] is A-375. The data set is described as follows: Increase in oxygen consumption rate in human A-375 cells at upto 10 uM measured after 6 hrs under hypoxia condition. Type of data set: functional, cell-based.
Data set [2] can be described thus: Drug localization in 2-ME treated human A-375 cells assessed as fluorescence in mitochondrial apparatus at 10 uM incubated for 30 mins by mito-tracker green dye based confocal microscopy analysis. Type of data set: ADME, cell-based. As to conditions: a-375, 0.5 h.
For data set [3], the system named is A-375. Nature of the data set: Antiproliferative activity against human A-375 cells assessed as reduction in colony number at 1.25 to 10 uM measured after 10 days under normoxia condition by crystal violet staining based analysis. Type of data set: functional, cell-based. As to conditions: dose 1.25-10 µM, time 10.0 day.
The test system of data set [4] is A-375. Nature of the data set: Reduction in ATP production in human A-375 cells at upto 10 uM incubated for 6 hrs under hypoxia condition by real-time ATP rate assay. Type of data set: functional, cell-based.
In data set [5] the test system is A-375. The data set is described as follows: Antiproliferative activity against human A-375 cells assessed as reduction in cell growth at 1.25 to 10 uM incubated for 72 hrs under normoxia condition by MTT assay. The format is functional, cell-based. As to conditions: dose 1.25-10 µM. (Tetrazolium assays rely on reduction of a dye to a coloured formazan, in cell work by metabolically active cells.)

Data set [6] deals with A-375. Nature of the data set: Antitumor activity in human A-375 cells xenografted in BALB/c-nu mouse model assessed as decrease in AMPKalpha phosphorylation 50 mg/kg, ip by Western blot analysis. Type of data set: functional, organism-based. (In general: Xenograft models place foreign cells or tissue in a host animal.)
In data set [7] the test system is A-375. Nature of the data set: Radical scavenging activity in 2-ME treated oxidative stress induced tumor bearing BALB/c-nu mouse xenografted in human A-375 cells assessed as increase in fluorescence intensity at 10 uM incubated for 30 mins by confocal microscopic analysis. The format is functional, cell-based.
In data set [8] the test system is A-375. Nature of the data set: Reduction in extracellular acidification rates in human A-375 cells at upto 10 uM incubated for 6 hrs under normoxia condition. Type of data set: functional, cell-based.
Data set [9] is described as follows: Drug localization in 2-ME treated human A-375 cells assessed as fluorescence in lysosomes at 10 uM incubated for 30 mins by lyso-tracker red dye based confocal microscopy analysis. As to conditions: a-375, 0.5 h. The format is ADME, cell-based.
Data set [10] is described as follows: Toxicity in BALB/c-nu mouse xenografted with human A-375 cells assessed as effect on body weight at 25 to 50 mg/kg, ip administered once daily fo 18 days post treatment. Type of data set: organism-based. As to conditions: in vivo, 432 h, dose 25-50 mg/kg, time 18 day.
Data set [11] has as its system A-375. The data set is described as follows: Increase in oxygen consumption rate in human A-375 cells at upto 10 uM measured after 6 hrs under normoxia condition. The format is functional, cell-based.
The subject of data set [12] is A-375. The data set is described as follows: Radical scavenging activity in 2-ME treated oxidative stress induced human A-375 cells assessed as increase in fluorescent signal at 10 uM incubated for 30 mins followed by washout and addition of ascorbic acid by confocal microscopic analysis. The format is functional, cell-based.
Data set [13] has as its system A-375. The data set is described as follows: Antiproliferative activity against human A-375 cells assessed as reduction in colony number at 1.25 to 10 uM measured after 10 days under hypoxia condition by crystal violet staining based analysis. The format is functional, cell-based. As to conditions: dose 1.25-10 µM, time 10.0 day.
For data set [14], the system named is A-375. The data set is described as follows: Reduction in […] O2 level in human A-375 cells at 2.5 to 10 uM incubated for 72 hrs under hypoxia condition by DHE based flow cytometry analysis. The format is functional, cell-based. As to conditions: dose 2.5-10 µM. On the technique in general: In flow cytometry, cells or beads pass a laser one at a time.

Data set [15] relates to A-375. Nature of the data set: Reduction in AMPK phosphorylation level in human A-375 cells at upto 20 uM incubated for 72 hrs under hypoxic condition by Western blot analysis. The format is functional, cell-based.
Data set [16] has as its system A-375. Nature of the data set: Radical scavenging activity in 2-ME treated oxidative stress induced human A-375 cells assessed as increase in fluorescent signal at 10 uM incubated for 30 mins by confocal microscopic analysis. The format is functional, cell-based.
For data set [17], the system named is A-375. The data set is described as follows: Antiproliferative activity against human A-375 cells assessed as reduction in cell growth at 1.25 to 10 uM incubated for 72 hrs under hypoxia condition by MTT assay. Type of data set: functional, cell-based. As to conditions: dose 1.25-10 µM.
Data set [18] relates to A-375. The data set is described as follows: Reduction in AMPK phosphorylation level in human A-375 cells at upto 20 uM incubated for 72 hrs under normoxic condition by Western blot analysis. The format is functional, cell-based.
In data set [19] the test system is A-375. The data set is described as follows: Reduction in […] O2 level in human A-375 cells at 2.5 to 10 uM incubated for 72 hrs under normoxia condition by DHE based flow cytometry analysis. The format is functional, cell-based. As to conditions: dose 2.5-10 µM.
Data set [20] relates to A-375. The data set is described as follows: Reduction in extracellular acidification rates in human A-375 cells at upto 10 uM incubated for 6 hrs under hypoxia condition. Type of data set: functional, cell-based.
The test system of data set [21] is A-375. Nature of the data set: Antitumor activity in human A-375 cells xenografted in BALB/c-nu mouse model assessed as inhibition of tumor growth at 25 to 50 mg/kg, ip administered once daily and measured every 3 days for 18 days. The format is functional, organism-based. As to conditions: dose 25-50 mg/kg, time 18.0 day.
Data set [22] deals with A-375. Nature of the data set: Radical scavenging activity in 2-ME treated oxidative stress induced human A-375 cells assessed as increase in fluorescent signal at 10 uM incubated for 30 mins followed by washout and addition of superoxide dismutase by confocal microscopic analysis. Type of data set: functional, cell-based.
Data set [23] deals with A-375. The data set is described as follows: Reduction in ATP production in human A-375 cells at upto 10 uM incubated for 6 hrs under normoxia condition by real-time ATP rate assay. Type of data set: functional, cell-based.
The test system of data set [24] is A-375. Nature of the data set: Radical scavenging activity in 2-ME treated oxidative stress induced tumor bearing BALB/c-nu mouse xenografted in human A-375 cells assessed as increase in fluorescence intensity at 10 uM incubated for 30 mins followed by washout and addition of ascorbic acid by confocal microscopic analysis. The format is functional, cell-based.

`O=C(/C=C/c1ccc(O)c(O)c1)O[C@@H]1C[C@](O)(C(=O)O)C[C@@H](O)[C@H]1O` [CHLOROGENIC ACID]: the outcome in the data set on A-375 [1], in the data set on A-375 [4], in the data set with A-375 [6], in the data set on A-375 [7], with A-375 [13] and in the data set on A-375 [14] was Active. For the same compound, the outcome in the data set with A-375 [15], in the data set on A-375 [16], in the data set on A-375 [17], with A-375 [20] and in the data set on A-375 [21] was Active. Further, the values for the Drug uptake result in [2] and in data set [9] were “Active” and “Not Active”, respectively. In addition, the result in the data set with A-375 [3], with A-375 [5], in the data set with A-375 [8], in the data set with A-375 [11], with A-375 [12] and with A-375 [18] was inactive. Besides, the outcome in the data set with A-375 [19], with A-375 [22], with A-375 [23] and with A-375 [24] was inactive. In data set [10], the Activity entry was “Non-Toxic”.
